Measured values taken from the supplement of paper PMC10307832.

How the values were obtained:
Test in all cases: relative viability (nuclei count vs DMSO), 5 days (fraction); higher = more cells survive
BEN = tested on: BEN
Summary of the method: (§1)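 Lung cancer cell lines were seeded in 1536-well plates and dosed by pin tool the next day, with either a single drug or a fixed anchor-drug dose combined with five library-drug doses (not always all listed) spaced in √10 steps. Five days later, one step fixed the cells and stained their nuclei (final 0.05% Triton X-100, 1% formaldehyde, 1 ug/ml Hoechst), and nuclei were counted on 4× images. Relative viability is the nuclei count in treated wells divided by the count in vehicle wells, and each value is the median of duplicate plates.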

EKVX = tested on: EKVX
Summary of the method: as §1

HARA = tested on: HARA
Summary of the method: as §1

HCC-366 = tested on: HCC-366
Summary of the method: as §1

HCC-827 = tested on: HCC-827
Summary of the method: as §1

LOU-NH91 = tested on: LOU-NH91
Summary of the method: as §1

NCI-H1355 = tested on: NCI-H1355
Summary of the method: as §1

NCI-H1395 = tested on: NCI-H1395
Summary of the method: as §1

NCI-H1437 = tested on: NCI-H1437
Summary of the method: as §1

NCI-H1734 = tested on: NCI-H1734
Summary of the method: as §1

NCI-H1792 = tested on: NCI-H1792
Summary of the method: as §1

NCI-H1993 = tested on: NCI-H1993
Summary of the method: as §1

NCI-H2009 = tested on: NCI-H2009
Summary of the method: as §1

NCI-H2087 = tested on: NCI-H2087
Summary of the method: as §1

NCI-H2170 = tested on: NCI-H2170
Summary of the method: as §1

NCI-H2405 = tested on: NCI-H2405
Summary of the method: as §1

NCI-H647 = tested on: NCI-H647
Summary of the method: as §1

NCI-H661 = tested on: NCI-H661
Summary of the method: as §1

SK-LU-1 = tested on: SK-LU-1
Summary of the method: as §1

SK-MES-1 = tested on: SK-MES-1
Summary of the method: as §1

Work on Cc1sc2c(c1C)C(c1ccc(Cl)cc1)=N[C@@H](CC(=O)OC(C)(C)C)c1nnc(C)n1-2 [JQ1] + Cc1nc(NC(=O)N2CCC[C@H]2C(N)=O)sc1-c1ccnc(C(C)(C)C(F)(F)F)c1 [Alpelisib] (partner 2 µM) yielded a relative viability (BEN; first compound 0.04 µM) of 0.953, a relative viability (BEN; first compound 0.1265 µM) of 0.918 and a relative viability (BEN; first compound 0.4 µM) of 0.594. The relative viability (BEN; first compound 1.265 µM) was 0.332, the relative viability (BEN; first compound 4 µM) was 0.273 and the relative viability (EKVX; first compound 0.04 µM) was 0.834. It also gave a relative viability (EKVX; first compound 0.1265 µM) of 0.8, a relative viability (EKVX; first compound 0.4 µM) of 0.688 and a relative viability (EKVX; first compound 1.265 µM) of 0.729. The relative viability (EKVX; first compound 4 µM) was 0.664, the relative viability (HARA; first compound 0.04 µM) was 0.915 and the relative viability (HARA; first compound 0.1265 µM) was 0.598. For the same molecule, the relative viability (HARA; first compound 0.4 µM) was 0.283, the relative viability (HARA; first compound 1.265 µM) was 0.266 and the relative viability (HARA; first compound 4 µM) was 0.156. It also gave a relative viability (HCC-366; first compound 0.04 µM) of 0.405, a relative viability (HCC-366; first compound 0.4 µM) of 0.404 and a relative viability (HCC-366; first compound 1.265 µM) of 0.233. It also gave a relative viability (HCC-366; first compound 4 µM) of 0.215, a relative viability (HCC-827; first compound 0.04 µM) of 0.929 and a relative viability (HCC-827; first compound 0.4 µM) of 0.672. For the same molecule, the relative viability (HCC-827; first compound 1.265 µM) was 1.07, the relative viability (HCC-827; first compound 4 µM) was 1.11 and the relative viability (LOU-NH91; first compound 0.04 µM) was 0.683. It also gave a relative viability (LOU-NH91; first compound 0.1265 µM) of 0.664, a relative viability (LOU-NH91; first compound 0.4 µM) of 0.458 and a relative viability (LOU-NH91; first compound 1.265 µM) of 0.491. For the same molecule, the relative viability (LOU-NH91; first compound 4 µM) was 0.473, the relative viability (NCI-H1355; first compound 0.04 µM) was 0.856 and the relative viability (NCI-H1355; first compound 0.1265 µM) was 0.84. For the same molecule, the relative viability (NCI-H1355; first compound 0.4 µM) was 0.71, the relative viability (NCI-H1355; first compound 1.265 µM) was 0.508 and the relative viability (NCI-H1355; first compound 4 µM) was 0.438. It also gave a relative viability (NCI-H1395; first compound 0.04 µM) of 1.03, a relative viability (NCI-H1395; first compound 0.1265 µM) of 0.856 and a relative viability (NCI-H1395; first compound 0.4 µM) of 0.813. The relative viability (NCI-H1395; first compound 1.265 µM) was 0.495, the relative viability (NCI-H1395; first compound 4 µM) was 0.404 and the relative viability (NCI-H1437; first compound 0.04 µM) was 0.871. The relative viability (NCI-H1437; first compound 0.1265 µM) was 0.803, the relative viability (NCI-H1437; first compound 0.4 µM) was 0.515 and the relative viability (NCI-H1437; first compound 1.265 µM) was 0.284. For the same molecule, the relative viability (NCI-H1437; first compound 4 µM) was 0.216, the relative viability (NCI-H1734; first compound 0.04 µM) was 0.709 and the relative viability (NCI-H1734; first compound 0.1265 µM) was 0.645. The relative viability (NCI-H1734; first compound 0.4 µM) was 0.637, the relative viability (NCI-H1734; first compound 1.265 µM) was 0.544 and the relative viability (NCI-H1734; first compound 4 µM) was 0.421. For the same molecule, the relative viability (NCI-H1792; first compound 0.04 µM) was 0.702, the relative viability (NCI-H1792; first compound 0.4 µM) was 0.722 and the relative viability (NCI-H1792; first compound 1.265 µM) was 0.411. The relative viability (NCI-H1792; first compound 4 µM) was 0.364, the relative viability (NCI-H1993; first compound 0.04 µM) was 0.705 and the relative viability (NCI-H1993; first compound 0.1265 µM) was 0.653. The relative viability (NCI-H1993; first compound 0.4 µM) was 0.667, the relative viability (NCI-H1993; first compound 1.265 µM) was 0.665 and the relative viability (NCI-H1993; first compound 4 µM) was 0.665. For the same molecule, the relative viability (NCI-H2009; first compound 0.04 µM) was 1.09, the relative viability (NCI-H2009; first compound 0.1265 µM) was 0.968 and the relative viability (NCI-H2009; first compound 0.4 µM) was 0.697. It also gave a relative viability (NCI-H2009; first compound 1.265 µM) of 0.32, a relative viability (NCI-H2009; first compound 4 µM) of 0.268 and a relative viability (NCI-H2087; first compound 0.04 µM) of 1.08. The relative viability (NCI-H2087; first compound 0.4 µM) was 0.811, the relative viability (NCI-H2087; first compound 1.265 µM) was 0.625 and the relative viability (NCI-H2087; first compound 4 µM) was 0.438. It also gave a relative viability (NCI-H2170; first compound 0.04 µM) of 0.811, a relative viability (NCI-H2170; first compound 0.1265 µM) of 0.801 and a relative viability (NCI-H2170; first compound 0.4 µM) of 0.689. The relative viability (NCI-H2170; first compound 1.265 µM) was 0.403, the relative viability (NCI-H2170; first compound 4 µM) was 0.34 and the relative viability (NCI-H2405; first compound 0.04 µM) was 0.824. For the same molecule, the relative viability (NCI-H2405; first compound 0.4 µM) was 0.74, the relative viability (NCI-H2405; first compound 1.265 µM) was 0.436 and the relative viability (NCI-H2405; first compound 4 µM) was 0.256. For the same molecule, the relative viability (NCI-H647; first compound 0.04 µM) was 0.998, the relative viability (NCI-H647; first compound 0.1265 µM) was 0.596 and the relative viability (NCI-H647; first compound 0.4 µM) was 0.447. The relative viability (NCI-H647; first compound 1.265 µM) was 0.156, the relative viability (NCI-H647; first compound 4 µM) was 0.132 and the relative viability (NCI-H661; first compound 0.04 µM) was 0.524. The relative viability (NCI-H661; first compound 0.1265 µM) was 0.529, the relative viability (NCI-H661; first compound 0.4 µM) was 0.71 and the relative viability (NCI-H661; first compound 1.265 µM) was 0.549. It also gave a relative viability (NCI-H661; first compound 4 µM) of 0.465, a relative viability (SK-LU-1; first compound 0.04 µM) of 1.11 and a relative viability (SK-LU-1; first compound 0.1265 µM) of 0.586. For the same molecule, the relative viability (SK-LU-1; first compound 0.4 µM) was 0.287, the relative viability (SK-LU-1; first compound 1.265 µM) was 0.167 and the relative viability (SK-LU-1; first compound 4 µM) was 0.158. For the same molecule, the relative viability (SK-MES-1; first compound 0.04 µM) was 0.769, the relative viability (SK-MES-1; first compound 0.1265 µM) was 0.68 and the relative viability (SK-MES-1; first compound 0.4 µM) was 0.733. The relative viability (SK-MES-1; first compound 1.265 µM) was 0.456 and the relative viability (SK-MES-1; first compound 4 µM) was 0.27.
